The test system of data set [1] is FXN messenger RNA. To be noted: cited from earlier work; for effects on FXN messenger RNA levels: Friedreich ataxia cells.
For data set [2], the system named is histones H3 and H4 within intron 1 of FXN. To be noted: chromatin immunoprecipitation; cited from earlier work.
For data set [3] the following is noted: pH = 2 and 50 °C; cited from earlier work.
The test system of another data set is YG8R mouse. To be noted: cited from earlier work.
Data set [4] has as its system class I histone deacetylase enzymes. To be noted: 106: histone deacetylase enzymes 1 and 3; cited from earlier work.
Another data set relates to class II HDACs. To be noted: panel of recombinant human enzymes expressed in baculovirus; cited from earlier work.
In data set [5] the test system is FXN messenger RNA. The data set is described as follows: FXN messenger RNA by qRT-PCR in peripheral blood mononuclear cells. It counts as cell-based, human. The note with it: 10 μM, 48 hours. Background: In qPCR the cycle at which signal appears reflects the starting amount.
The test system of data set [6] is histone deacetylase enzyme 8. To be noted: relative to histone deacetylase enzymes 1 and 3; cited from earlier work.
The test system of data set [7] is global acetylation of histone H3. The note with it: Friedreich ataxia lymphoblast cell line; cited from earlier work.
Another data set concerns frataxin protein. To be noted: Friedreich ataxia lymphoblast cell line; cited from earlier work.
Data set [8] concerns KIKI (FXN 230GAA/230GAA) mouse. The note with it: KIKI mice; cited from earlier work.
Data set [9] deals with FXN messenger RNA. Put plainly: FXN messenger RNA by qRT-PCR in Friedreich ataxia lymphoid cells. The data set is classed as cell-based, human. To be noted: 10 μM compound, qRT-PCR of FXN messenger RNA.
For data set [10], the system named is histone deacetylase enzyme 2. To be noted: relative to histone deacetylase enzymes 1 and 3; cited from earlier work.
The test system of a further data set is HDAC3. To be noted: recombinant enzymes; cited from earlier work.

Consider `Nc1ccccc1NC(=O)CCCCCCC(=O)Nc1ccccc1` [BML-210], for which, in the data set on FXN messenger RNA [1], the “repression of FXN in lymphoid cell lines derived from patients with Friedreich ataxia” value is reported as “relieve repression”.

Regarding `Nc1ccccc1NC(=O)CCCCCC(=O)Nc1ccccc1` [4b], the “histone acetylation on FXN (H3-K14, H4-K5, H4-K12 within intron 1)” value (“histone acetylation on FXN” for short) in data set [2] was “increases acetylation”.

Consider `Cc1ccc(C(=O)NCCCCCC(=O)Nc2ccccc2N)cc1` [compound 109], for which the “t1/2 in acidic conditions” value in [3] is 6 h. Further, in the data set on YG8R mouse, the “toxicity during 5 months of treatment” value was “no overt toxicity”.

With `CC(/C=C/C(=O)NO)=C\[C@@H](C)C(=O)c1ccc(N(C)C)cc1` [trichostatin A], in data set [2], the “histone acetylation on FXN” value is on record as “no effect”. Moreover, the mechanism of inhibition entry in [4] is reported as “rapid-on/rapid-off, classical competitive inhibitors”. The “effects on FXN messenger RNA levels” value in the data set with FXN messenger RNA [1] is “no effects”.

Turning to `Cc1ccc(NC(=O)CCCCCC(=O)Nc2ccccc2N)cc1` [compound 106], in the data set with class II HDACs, the “activity against class II histone deacetylases” value is “little or no activity”. For the same molecule, the “FXN messenger RNA, cells from patients with Friedreich ataxia” value in the data set with FXN messenger RNA [5] (peripheral blood mononuclear cells from affected individuals) is listed as “significant increases”. Further, in the data set with FXN messenger RNA [5] (peripheral blood mononuclear cells from unaffected individuals), the “FXN messenger RNA, wild-type alleles in cells from unaffected individuals” value is “only a very small effect”. Besides, the “activity against histone deacetylase enzyme 8” value in [6] was “much lower activity”. In data set [7], the “acetylated histones after washing cells free of the compounds” value was “persists for several hours”. For the same molecule, the “induction of frataxin protein” value in the data set on frataxin protein is “potent inducer”. Moreover, in data set [8], the “frataxin levels in the nervous system and heart” value is recorded as “restored”; the “histone H3 and H4 acetylation in chromatin near the GAA•TTC repeat” value is on record as “increased”. Further, the mechanism of inhibition entry in [4] is listed as “slow-on/slow-off”. In addition, the FXN transcription result in the data set on FXN messenger RNA [9] is “Highly active”. In addition, in the data set on YG8R mouse, the “global histone H3 and H4 acetylation of brain tissue” value is “increased”; the “toxicity during 5 months of treatment” value was “no overt toxicity”. Besides, the motor coordination result with YG8R mouse (long-term treatment) is on record as “improvement”. In addition, in [10], the “activity against histone deacetylase enzyme 2” value is on record as “much lower activity”. Besides, the “preference for histone deacetylase enzyme 3 over histone deacetylase enzyme 1” value with HDAC3 is listed as around 10 fold.

For the molecule `O=C(CCCCCCC(=O)Nc1ccccc1)NO` [suberoylanilide hydroxamic acid], in data set [2], the “histone acetylation on FXN” value is listed as “no effect”. Moreover, the “acetylated histones after washing cells free of the compounds” value in [7] is recorded as “rapidly lost”. Further, the “induction of frataxin protein” value in the data set with frataxin protein is “no such activity”. In the data set with FXN messenger RNA [1], the “effects on FXN messenger RNA levels” value was “no effects”. In the data set on FXN messenger RNA [1] (at subcytotoxic concentrations), the “activator of FXN transcription in Friedreich ataxia cells” value was “inactive”.

(Values after article PMC3743553 (Journal of child neurology, 2012).)
